Data taken from EPA's ToxValDB 9.5 (doi:10.2903/j.efsa.2013.3052).

Assays:
Anas platyrhynchos = details: short-term; oral; feed; mortality
Folsomia candida = details: chronic/long-term; duration: 28 days; reproduction
Pimephales promelas = details: chronic/long-term; duration: 33 days; behavior
Bibionidae = details: chronic/long-term; duration: 28 days; other
Neomysis kadiakensis = details: acute; duration: 96 hours; mortality
Daphnia magna = details: chronic/long-term; duration: 21 days; reproduction
Apis mellifera = details: acute, duration: 48 hours, mortality
Cyprinodon variegatus = details: acute; duration: 96 hours; mortality
Mus musculus = details: subchronic; duration: 90 days; oral; diet; organ weight
Hypoaspis aculeifer = details: chronic/long-term; duration: 14 days; reproduction

O=C(NCCc1ncc(C(F)(F)F)cc1Cl)c1ccccc1C(F)(F)F [Fluopyram]
LC50 (Anas platyrhynchos): > 1640 mg/kg-day | NOEC (Folsomia candida): 104 mg/kg | LC50 (Tagia sp.; acute, duration: 14 days, mortality): > 1000 mg/kg | NOEC (Tagia sp.; chronic/long-term, duration: 56 days, reproduction): 11.4 mg/kg | NOAEL (Rattus norvegicus; acute, F, neurology): 50 mg/kg-day | LD50 (Rattus norvegicus; acute, oral, mortality): > 2000 mg/kg-day | NOAEL (Rattus norvegicus; chronic): 14.5 mg/kg-day | NOAEL (Rattus norvegicus; chronic, duration: 2 years, oral, diet, body weight): 1.2 mg/kg-day | NOEC (Pimephales promelas): 0.135 mg/L | NOEC (Bibionidae): 1.39 mg/L | LC50 (Neomysis kadiakensis): > 0.5 µg/mL | NOEC (Daphnia magna): 1.25 mg/L | LD50 (Apis mellifera; dermal): > 100 µg/piece | LD50 (Apis mellifera; oral, unspecified): > 102 µg/piece | LD50 (Colinus virginianus; acute, oral, mortality): > 2000 mg/kg-day | NOAEL (Colinus virginianus; reproduction developmental): 7.2 mg/kg-day | LC50 (Cyprinodon variegatus): > 0.98 µg/mL | NOAEL (Mus musculus): 5.4 mg/kg-day | NOEC (Hypoaspis aculeifer): > 415 mg/kg
